Results reported in patent US20240335548A1, “MACROMOLECULES” (Starpharma Pty Ltd, priority 2011, published 2024).

System: not listed separately
Test: Water solubility study on drug loaded dendrimers
Type: physicochemical
Settings: deionised water, until full dissolution
Method: Protocol: To 30 mg of dendrimer (freeze-dried from water) was added 100 μL of deionised water. After mixing for 10 minutes, additional aliquots of water (10-30 μL per addition) were added with vortexing and incubation for 10 mins until full dissolution was obtained. This amount is represented in Table 1 as the water solubility of the dendrimer. The equivalent drug solubility is determined by multiplying the % drug loading/100 and is represented in Table 1 (column 3) as Equivalent drug solubility on dendrimer. Finally, the fold increase is obtained by dividing the Equivalent drug solubility on dendrimer by the solubility of the drug and is represented in Table 1 (column 4).

Row | Substance | Water solubility of dendrimer [mg/mL]
1 | BHALys[Lys]32[α-o-PDA-DTX]32[ε-PEG1100]32 [7 (b)] | 91

Same assay, conditions: equivalent drug solubility divided by solubility of the drug

Row | Substance | Fold increase in drug solubility
2 | BHALys[Lys]32[α-o-PDA-DTX]32[ε-PEG1100]32 [7 (b)] | 5000

Same assay, conditions: water solubility x % drug loading/100

Row | Substance | Equivalent drug solubility on dendrimer [mg/mL]
3 | BHALys[Lys]32[α-o-PDA-DTX]32[ε-PEG1100]32 [7 (b)] | 25

System: HT-29
Test: IC50 using the MTT assay
Type: cell-based
Settings: 72 hours
Method: (§1) The IC50 using the MTT assay [Wilson, Anne P. (2000). “Chapter 7: Cytotoxicity and viability”. In Masters, John R. W. Animal Cell Culture: A Practical Approach. Vol. 1 (3rd ed.). Oxford: Oxford University Press] was determined against various cancer cell lines after 72 hours.

Row | Substance | IC50 [nM]
4 | BHALys[Lys]32[α-GFLG-Glu-DTX]32[ε-PEG1100]32 [15 (c)] | 5.7
5 | BHALys[Lys]32[α-GGG-Glu-DTX]32[ε-PEG1100]32 [14 (c)] | 0.5
6 | BHALys[Lys]32[α-GILGVP-Glu-DTX]32[ε-t-PEG2300]32 [Example 17] | 85
7 | BHALys[Lys]32[α-PEG1100]32[ε-TDA-DTX]32 [Example 18] | 1.8

System: PC-3
Test: IC50 using the MTT assay
Type: cell-based
Settings: 72 hours
Method: as §1

Row | Substance | IC50 [nM]
8 | BHALys[Lys]32[α-GFLG-Glu-DTX]32[ε-PEG1100]32 [15 (c)] | 11.8
9 | BHALys[Lys]32[α-GGG-Glu-DTX]32[ε-PEG1100]32 [14 (c)] | 3.8
10 | BHALys[Lys]32[α-GILGVP-Glu-DTX]32[ε-t-PEG2300]32 [Example 17] | 359
11 | BHALys[Lys]32[α-PEG1100]32[ε-TDA-DTX]32 [Example 18] | 5.9

System: DU-145
Test: IC50 using the MTT assay
Type: cell-based
Settings: 72 hours
Method: as §1

Row | Substance | IC50 [nM]
12 | BHALys[Lys]32[α-GFLG-Glu-DTX]32[ε-PEG1100]32 [15 (c)] | 29.5
13 | BHALys[Lys]32[α-GGG-Glu-DTX]32[ε-PEG1100]32 [14 (c)] | 7.3
14 | BHALys[Lys]32[α-GILGVP-Glu-DTX]32[ε-t-PEG2300]32 [Example 17] | 290
15 | BHALys[Lys]32[α-PEG1100]32[ε-TDA-DTX]32 [Example 18] | 11.6

System: HCT-116
Test: IC50 using the MTT assay
Type: cell-based
Settings: 72 hours
Method: as §1

Row | Substance | IC50 [nM]
16 | BHALys[Lys]32[α-GFLG-Glu-DTX]32[ε-PEG1100]32 [15 (c)] | 7.2
17 | BHALys[Lys]32[α-GGG-Glu-DTX]32[ε-PEG1100]32 [14 (c)] | 2.6
18 | BHALys[Lys]32[α-GILGVP-Glu-DTX]32[ε-t-PEG2300]32 [Example 17] | 216
19 | BHALys[Lys]32[α-PEG1100]32[ε-TDA-DTX]32 [Example 18] | 2.9

System: A549
Test: IC50 using the MTT assay
Type: cell-based
Settings: 72 hours
Method: as §1

Row | Substance | IC50 [nM]
20 | BHALys[Lys]32[α-GFLG-Glu-DTX]32[ε-PEG1100]32 [15 (c)] | 8.1
21 | BHALys[Lys]32[α-GGG-Glu-DTX]32[ε-PEG1100]32 [14 (c)] | 1.5
22 | BHALys[Lys]32[α-GILGVP-Glu-DTX]32[ε-t-PEG2300]32 [Example 17] | 160
23 | BHALys[Lys]32[α-PEG1100]32[ε-TDA-DTX]32 [Example 18] | 20.3

System: MCF-7
Test: IC50 using the MTT assay
Type: cell-based
Settings: 72 hours
Method: as §1

Row | Substance | IC50 [nM]
24 | BHALys[Lys]32[α-GFLG-Glu-DTX]32[ε-PEG1100]32 [15 (c)] | 8.3
25 | BHALys[Lys]32[α-GGG-Glu-DTX]32[ε-PEG1100]32 [14 (c)] | 0.5
26 | BHALys[Lys]32[α-GILGVP-Glu-DTX]32[ε-t-PEG2300]32 [Example 17] | 93.7
27 | BHALys[Lys]32[α-PEG1100]32[ε-TDA-DTX]32 [Example 18] | 3.3

System: A2780
Test: IC50 using the MTT assay
Type: cell-based
Settings: 72 hours
Method: as §1

Row | Substance | IC50 [nM]
28 | BHALys[Lys]32[α-GFLG-Glu-DTX]32[ε-PEG1100]32 [15 (c)] | 13.6
29 | BHALys[Lys]32[α-GGG-Glu-DTX]32[ε-PEG1100]32 [14 (c)] | 4.6
30 | BHALys[Lys]32[α-GILGVP-Glu-DTX]32[ε-t-PEG2300]32 [Example 17] | 291
31 | BHALys[Lys]32[α-PEG1100]32[ε-TDA-DTX]32 [Example 18] | 5.7

System: H460
Test: IC50 using the MTT assay
Type: cell-based
Settings: 72 hours
Method: as §1

Row | Substance | IC50 [nM]
32 | BHALys[Lys]32[α-GFLG-Glu-DTX]32[ε-PEG1100]32 [15 (c)] | 31.8
33 | BHALys[Lys]32[α-GGG-Glu-DTX]32[ε-PEG1100]32 [14 (c)] | 4.3
34 | BHALys[Lys]32[α-GILGVP-Glu-DTX]32[ε-t-PEG2300]32 [Example 17] | 603
35 | BHALys[Lys]32[α-PEG1100]32[ε-TDA-DTX]32 [Example 18] | 7.5

System: not listed separately
Test: Plasma stability study: docetaxel release in mouse plasma
Type: in vitro ADME
Settings: 0.5 hours, 37° C.
Method: Protocol: To 0.5 mL of mouse plasma was added 0.1 mL of dendrimer solution (2 mg/mL, drug equivalent in saline). The mixtures were vortexed (30 s) then incubated at 37° C. At various timepoints (0.5, 2.5, 4.5, 22 hours) 0.1 mL aliquots were removed and added to 0.2 mL ACN. The resulting mixtures were vortexed (30 s), centrifuged (10 min, 4° C.) filtered and analysed by HPLC (C8, 3.9×150 mm, 5 μm, wavelength=243 nm, 10 μL injections, gradient: 40-80% ACN/H2O (1-7 min), 80% ACN (7-9 min), 80-40% ACN (9-11 min), 40% ACN (11-15 min), 10 mM ammonium formate, pH 7.40) which when compared against a standard (2 mg//mL) provided the concentration of free docetaxel in the sample.

Row | Substance | Docetaxel release in plasma
36 | BHALys[Lys]32[α-o-PDA-DTX]32[ε-PEG1100]32 [7 (b)] | 20.5 percentage of total docetaxel

Same assay, conditions: 2.5 hours, 37° C.

Row | Substance | Docetaxel release in plasma
37 | BHALys[Lys]32[α-o-PDA-DTX]32[ε-PEG1100]32 [7 (b)] | 32 percentage of total docetaxel

Same assay, conditions: 22 hours, 37° C.

Row | Substance | Docetaxel release in plasma
38 | BHALys[Lys]32[α-o-PDA-DTX]32[ε-PEG1100]32 [7 (b)] | 71.5 percentage of total docetaxel

System: MCAS (Ovarian)
Test: Cell growth inhibition SRB assay
Type: cell-based
Settings: MCAS; 72 hours; equivalent drug loading; average of duplicate
Method: (§2) All solutions were prepared in saline (except docetaxel which was made in ethanol). All solutions were stored at −20° C. All values were based on the equivalent drug loading.

Row | Substance | GI50 [nM]
39 | BHALys[Lys]32[α-4-HSBA-4Aba-DTX]32[ε-PEG1100]32 [1 (b)] | 29
40 | BHALys[Lys]32[α-Glu-GEM]32[ε-PEG1100]32 [13 (b)] | 117

System: A549 (Lung)
Test: Cell growth inhibition SRB assay
Type: cell-based
Settings: A549; 72 hours; equivalent drug loading; average of duplicate
Method: as §2

Row | Substance | GI50 [nM]
41 | BHALys[Lys]32[α-4-HSBA-4Aba-DTX]32[ε-PEG1100]32 [1 (b)] | 13
42 | BHALys[Lys]32[α-Glu-GEM]32[ε-PEG1100]32 [13 (b)] | 73

System: HCT116 (Colon)
Test: Cell growth inhibition SRB assay
Type: cell-based
Settings: HCT116; 72 hours; equivalent drug loading; average of duplicate
Method: as §2

Row | Substance | GI50 [nM]
43 | BHALys[Lys]32[α-4-HSBA-4Aba-DTX]32[ε-PEG1100]32 [1 (b)] | 8.5
44 | BHALys[Lys]32[α-Glu-GEM]32[ε-PEG1100]32 [13 (b)] | 30.5

System: HT29 (Colon)
Test: Cell growth inhibition SRB assay
Type: cell-based
Settings: HT29; 72 hours; equivalent drug loading; average of duplicate
Method: as §2

Row | Substance | GI50 [nM]
45 | BHALys[Lys]32[α-4-HSBA-4Aba-DTX]32[ε-PEG1100]32 [1 (b)] | 12.5
46 | BHALys[Lys]32[α-Glu-GEM]32[ε-PEG1100]32 [13 (b)] | 117

System: H460 (Lung)
Test: Cell growth inhibition SRB assay
Type: cell-based
Settings: not given
Method: as §2

Row | Substance | GI50 [nM]
47 | BHALys[Lys]32[α-o-PDA-DTX]32[ε-PEG1100]32 [7 (b)] | 4.5

Same assay, conditions: H460; 72 hours; equivalent drug loading; average of duplicate

Row | Substance | GI50 [nM]
48 | BHALys[Lys]32[α-4-HSBA-4Aba-DTX]32[ε-PEG1100]32 [1 (b)] | 13
49 | BHALys[Lys]32[α-Glu-GEM]32[ε-PEG1100]32 [13 (b)] | 127
50 | BHALys[Lys]32[α-PDT-DTX]32[ε-PEG1100]32 [9 (b)] | 365
51 | BHALys[Lys]32[α-PEG2-DTX]32[ε-PEG1100]32 [10 (b)] | 6.5

System: MDA-MB-231 (Breast)
Test: Cell growth inhibition SRB assay
Type: cell-based
Settings: MDA-MB-231; 72 hours; equivalent drug loading; average of duplicate
Method: as §2

Row | Substance | GI50 [nM]
52 | BHALys[Lys]32[α-4-HSBA-4Aba-DTX]32[ε-PEG1100]32 [1 (b)] | 11.5
53 | BHALys[Lys]32[α-Glu-GEM]32[ε-PEG1100]32 [13 (b)] | 50.5

System: ES2 (Ovarian)
Test: Cell growth inhibition SRB assay
Type: cell-based
Settings: not given
Method: as §2

Row | Substance | GI50 [nM]
54 | BHALys[Lys]32[α-o-PDA-DTX]32[ε-PEG1100]32 [7 (b)] | 8

Same assay, conditions: ES2; 72 hours; equivalent drug loading; average of duplicate

Row | Substance | GI50 [nM]
55 | BHALys[Lys]32[α-4-HSBA-4Aba-DTX]32[ε-PEG1100]32 [1 (b)] | 16.5
56 | BHALys[Lys]32[α-Glu-GEM]32[ε-PEG1100]32 [13 (b)] | 48
57 | BHALys[Lys]32[α-PDT-DTX]32[ε-PEG1100]32 [9 (b)] | 888
58 | BHALys[Lys]32[α-PEG2-DTX]32[ε-PEG1100]32 [10 (b)] | 10.5

System: DU145 (Prostate)
Test: Cell growth inhibition SRB assay
Type: cell-based
Settings: DU145; 72 hours; equivalent drug loading; average of duplicate
Method: as §2

Row | Substance | GI50 [nM]
59 | BHALys[Lys]32[α-4-HSBA-4Aba-DTX]32[ε-PEG1100]32 [1 (b)] | 11.5
60 | BHALys[Lys]32[α-Glu-GEM]32[ε-PEG1100]32 [13 (b)] | 99

System: A2058 (Melanoma)
Test: Cell growth inhibition SRB assay
Type: cell-based
Settings: A2058; 72 hours; equivalent drug loading; average of duplicate
Method: as §2

Row | Substance | GI50 [nM]
61 | BHALys[Lys]32[α-4-HSBA-4Aba-DTX]32[ε-PEG1100]32 [1 (b)] | 9.5
62 | BHALys[Lys]32[α-Glu-GEM]32[ε-PEG1100]32 [13 (b)] | 100

System: PC-3 (Prostate)
Test: Cell growth inhibition SRB assay
Type: cell-based
Settings: not given
Method: as §2

Row | Substance | GI50 [nM]
63 | BHALys[Lys]32[α-o-PDA-DTX]32[ε-PEG1100]32 [7 (b)] | 6.5

Same assay, conditions: PC-3; 72 hours; equivalent drug loading; average of duplicate

Row | Substance | GI50 [nM]
64 | BHALys[Lys]32[α-4-HSBA-4Aba-DTX]32[ε-PEG1100]32 [1 (b)] | 17
65 | BHALys[Lys]32[α-Glu-GEM]32[ε-PEG1100]32 [13 (b)] | 288
66 | BHALys[Lys]32[α-PDT-DTX]32[ε-PEG1100]32 [9 (b)] | 618
67 | BHALys[Lys]32[α-PEG2-DTX]32[ε-PEG1100]32 [10 (b)] | 9.5
